Measurements taken from patent publication US20260109732A1, “LIPID AMINES” (ModernaTX, Inc., priority 2021, published 2026).

What was measured:
[1] = Diameter and PDI from DLS measurements of mRNA nanoparticles with lipid amines; type: physicochemical
Procedure, shortened: (§1)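 Ionizable lipid nanoparticles (IL1:DSPC:cholesterol:PEG-DMG-2K) formed by vortex mixing at pH 4, loaded with luciferase or CFTR mRNA at N:P 4.93, neutralized with TRIS pH 8.12, then modified with lipid amine SA50 at pH 7.5. Particle diameter and PDI read by DLS; mRNA encapsulation by Ribogreen assay.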

[2] = Encapsulation of mRNA nanoparticles with lipid amines using Ribogreen assay; type: physicochemical
Procedure, shortened: as §1

HeLa cells [3] = assay: Luciferase Protein Expression Assay in HeLa Cells; type: cell-based, Human; conditions: LNPs encapsulating Luciferase mRNA, 25 ng per well, N=4 wells; 5 h serum-free then 24 h; ONE-Glo
Procedure, shortened: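 HeLa cells received LNPs carrying luciferase mRNA (25 ng per well) or PBS in serum-free MEM for 5 h, then complete MEM for a further 24 h. Luciferase then read by ONE-Glo luminescence after lysis and reported as average RLU of 4 replicate wells.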

HeLa cells [4] = assay: CFTR Protein Expression Assay in HeLa Cells; type: cell-based, Human; conditions: LNPs encapsulating CFTR mRNA, N=4 wells; 5 h serum-free then 24 h; immunofluorescence vs PBS control
Procedure, shortened: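 HeLa cells dosed with CFTR mRNA LNPs (70 mM NaCl final buffer matrix) in serum-free MEM for 5 h, then complete MEM for 24 h. Fixed cells immunostained with anti-CFTR monoclonal and Alexa 488 secondary, imaged confocally; CFTR intensity per cell expressed as fold-change versus PBS buffer control, N=4 wells.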

[5] = CFTR mRNA nanoparticle with lipid amine
[6] = Luciferase mRNA nanoparticle modified with lipid amine

CC(C)CCC[C@@H](C)[C@H]1CC[C@H]2[C@@H]3CC=C4C[C@@H](OC(=O)N(CCCCNCC5(CN)CC5)CC5(CN)CC5)CC[C@]4(C)[C@H]3CC[C@]12C.Cl.Cl.Cl [SA128, (3S,8S,9S,10R,13R,14S,17R)-10,13-dimethyl-17-((R)-6-methylheptan-2-yl)-2,3,4,7,8,9,10,11,12,13,14,15,16,17-tetradecahydro-1H-cyclopenta[a]phenanthren-3-yl ((1-(aminomethyl)cyclopropyl)methyl)(4-(((1-(aminomethyl)cyclopropyl)methyl)amino)butyl)carbamate trihydrochloride]
Diameter (nm) [1, 5]: 74.5 nm
PDI [1, 5]: 0.13
Diameter (nm) [1, 6]: 75 nm
PDI [1, 6]: 0.16
% Encapsulation (Ribogreen) [2, 5]: 99.4%
% Encapsulation (Ribogreen) [2, 6]: 99.4%
Average Relative Light Units ± Standard Deviation (HeLa cells [3]): 39386.4 ± 5261.4 Relative Light Units
Average fold-change in CFTR signal intensity per cell compared to buffer control ± standard deviation (HeLa cells [4]): 19.9 ± 0.4 fold-change

CC(C)CCC[C@@H](C)[C@H]1CC[C@H]2[C@@H]3CC=C4C[C@@H](OC(=O)CN(CCCCCCCCN)C(=O)[C@@H](N)CCCN)CC[C@]4(C)[C@H]3CC[C@]12C.Cl.Cl.Cl [SA129, (3S,8S,9S,10R,13R,14S,17R)-10,13-dimethyl-17-((R)-6-methylheptan-2-yl)-2,3,4,7,8,9,10,11,12,13,14,15,16,17-tetradecahydro-1H-cyclopenta[a]phenanthren-3-yl N-(8-aminooctyl)-N-((S)-2,5-diaminopentanoyl)glycinate trihydrochloride]
Diameter (nm) [1, 5]: 81.6 nm
PDI [1, 5]: 0.12
Diameter (nm) [1, 6]: 70 nm
PDI [1, 6]: 0.16
% Encapsulation (Ribogreen) [2, 5]: 96.2%
% Encapsulation (Ribogreen) [2, 6]: 99.5%
Average Relative Light Units ± Standard Deviation (HeLa cells [3]): 144.8 ± 21.6 Relative Light Units
Average fold-change in CFTR signal intensity per cell compared to buffer control ± standard deviation (HeLa cells [4]): 1.0 ± 0 fold-change

CC(C)CCC[C@@H](C)[C@H]1CC[C@H]2[C@@H]3CC=C4C[C@@H](OC(=O)[C@H](CCCCN)NCCCCCCN)CC[C@]4(C)[C@H]3CC[C@]12C.Cl.Cl.Cl [SA131, (3S,8S,9S,10R,13R,14S,17R)-10,13-dimethyl-17-((R)-6-methylheptan-2-yl)-2,3,4,7,8,9,10,11,12,13,14,15,16,17-tetradecahydro-1H-cyclopenta[a]phenanthren-3-yl (6-aminohexyl)-L-lysinate trihydrochloride]
Diameter (nm) [1, 5]: 83.8 nm
PDI [1, 5]: 0.14
Diameter (nm) [1, 6]: 72 nm
PDI [1, 6]: 0.12
% Encapsulation (Ribogreen) [2, 5]: 98.6%
% Encapsulation (Ribogreen) [2, 6]: 99.6%
Average Relative Light Units ± Standard Deviation (HeLa cells [3]): 40915.5 ± 4983.3 Relative Light Units
Average fold-change in CFTR signal intensity per cell compared to buffer control ± standard deviation (HeLa cells [4]): 10.8 ± 0.5 fold-change

CC(C)CCC[C@@H](C)[C@H]1CC[C@H]2[C@@H]3CC=C4C[C@@H](OC(=O)[C@H](CCCN)NCCCCCCN)CC[C@]4(C)[C@H]3CC[C@]12C.Cl.Cl.Cl [SA132, (3S,8S,9S,10R,13R,14S,17R)-10,13-dimethyl-17-((R)-6-methylheptan-2-yl)-2,3,4,7,8,9,10,11,12,13,14,15,16,17-tetradecahydro-1H-cyclopenta[a]phenanthren-3-yl (S)-5-amino-2-((6-aminohexyl)amino)pentanoate trihydrochloride]
Diameter (nm) [1, 5]: 84.2 nm
PDI [1, 5]: 0.15
Diameter (nm) [1, 6]: 81 nm
PDI [1, 6]: 0.41
% Encapsulation (Ribogreen) [2, 5]: 96.8%
% Encapsulation (Ribogreen) [2, 6]: 99.3%
Average Relative Light Units ± Standard Deviation (HeLa cells [3]): 131.6 ± 15.5 Relative Light Units
Average fold-change in CFTR signal intensity per cell compared to buffer control ± standard deviation (HeLa cells [4]): 1.6 ± 0.1 fold-change

CCC(N)(CC)CCNCCCCN(CCC(N)(CC)CC)C(=O)O[C@H]1CC[C@@]2(C)C(=CC[C@H]3[C@@H]4CC[C@H]([C@H](C)CCCC(C)C)[C@@]4(C)CC[C@@H]32)C1.Cl.Cl.Cl [SA133, (3S,8S,9S,10R,13R,14S,17R)-10,13-dimethyl-17-((R)-6-methylheptan-2-yl)-2,3,4,7,8,9,10,11,12,13,14,15,16,17-tetradecahydro-1H-cyclopenta[a]phenanthren-3-yl (3-amino-3-ethylpentyl)(4-((3-amino-3-ethylpentyl)amino)butyl)carbamate trihydrochloride]
Diameter (nm) [1, 5]: 73.5 nm
PDI [1, 5]: 0.11
Diameter (nm) [1, 6]: 73 nm
PDI [1, 6]: 0.17
% Encapsulation (Ribogreen) [2, 5]: 99.4%
% Encapsulation (Ribogreen) [2, 6]: 99.0%
Average Relative Light Units ± Standard Deviation (HeLa cells [3]): 26696.2 ± 5831.4 Relative Light Units
Average fold-change in CFTR signal intensity per cell compared to buffer control ± standard deviation (HeLa cells [4]): 18.5 ± 0.8 fold-change

CC(C)CCC[C@@H](C)[C@H]1CC[C@H]2[C@@H]3CC=C4C[C@@H](OC(=O)CCCC(=O)N(CCCN)CCCCCCCCN)CC[C@]4(C)[C@H]3CC[C@]12C.Cl.Cl [SA134, (3S,8S,9S,10R,13R,14S,17R)-10,13-dimethyl-17-((R)-6-methylheptan-2-yl)-2,3,4,7,8,9,10,11,12,13,14,15,16,17-tetradecahydro-1H-cyclopenta[a]phenanthren-3-yl 5-((8-aminooctyl)(3-aminopropyl)amino)-5-oxopentanoate dihydrochloride]
Diameter (nm) [1, 5]: 74.1 nm
PDI [1, 5]: 0.10
Diameter (nm) [1, 6]: 72 nm
PDI [1, 6]: 0.13
% Encapsulation (Ribogreen) [2, 5]: 98.7%
% Encapsulation (Ribogreen) [2, 6]: 99.5%
Average Relative Light Units ± Standard Deviation (HeLa cells [3]): 29194.3 ± 6336.9 Relative Light Units
Average fold-change in CFTR signal intensity per cell compared to buffer control ± standard deviation (HeLa cells [4]): 17.7 ± 0.9 fold-change

CC[C@H](CC[C@@H](C)[C@H]1CC[C@H]2[C@@H]3CC=C4C[C@@H](OC(=O)CCCC(=O)N(CCCN)CCCCCCCCN)CC[C@]4(C)[C@H]3CC[C@]12C)C(C)C.Cl.Cl [SA135, (3S,8S,9S,10R,13R,14S,17R)-17-((2R,5R)-5-ethyl-6-methylheptan-2-yl)-10,13-dimethyl-2,3,4,7,8,9,10,11,12,13,14,15,16,17-tetradecahydro-1H-cyclopenta[a]phenanthren-3-yl 5-((8-aminooctyl)(3-aminopropyl)amino)-5-oxopentanoate dihydrochloride]
Diameter (nm) [1, 5]: 73.5 nm
PDI [1, 5]: 0.11
Diameter (nm) [1, 6]: 71 nm
PDI [1, 6]: 0.12
% Encapsulation (Ribogreen) [2, 5]: 98.0%
% Encapsulation (Ribogreen) [2, 6]: 99.3%
Average Relative Light Units ± Standard Deviation (HeLa cells [3]): 27499.8 ± 7269.5 Relative Light Units
Average fold-change in CFTR signal intensity per cell compared to buffer control ± standard deviation (HeLa cells [4]): 16.6 ± 1.5 fold-change

CC[C@H](CC[C@@H](C)[C@H]1CC[C@H]2[C@@H]3CC=C4C[C@@H](OC(=O)CCCC(=O)N(CCCCNCCC(C)N)CCC(C)N)CC[C@]4(C)[C@H]3CC[C@]12C)C(C)C.Cl.Cl.Cl (stereo partly drawn) [SA136, (3S,8S,9S,10R,13R,14S,17R)-17-((2R,5R)-5-ethyl-6-methylheptan-2-yl)-10,13-dimethyl-2,3,4,7,8,9,10,11,12,13,14,15,16,17-tetradecahydro-1H-cyclopenta[a]phenanthren-3-yl 5-((3-aminobutyl)(4-((3-aminobutyl)amino)butyl)amino)-5-oxopentanoate trihydrochloride]
Diameter (nm) [1, 5]: 76.9 nm
PDI [1, 5]: 0.13
Diameter (nm) [1, 6]: 75 nm
PDI [1, 6]: 0.16
% Encapsulation (Ribogreen) [2, 5]: 97.7%
% Encapsulation (Ribogreen) [2, 6]: 99.7%
Average Relative Light Units ± Standard Deviation (HeLa cells [3]): 16245.8 ± 6554.6 Relative Light Units
Average fold-change in CFTR signal intensity per cell compared to buffer control ± standard deviation (HeLa cells [4]): 15.8 ± 1.4 fold-change

CC[C@H](CC[C@@H](C)[C@H]1CC[C@H]2[C@@H]3CC=C4C[C@@H](OC(=O)CCCC(=O)N(CCCCNCCC(C)(C)N)CCC(C)(C)N)CC[C@]4(C)[C@H]3CC[C@]12C)C(C)C.Cl.Cl.Cl [SA137, (3S,8S,9S,10R,13R,14S,17R)-17-((2R,5R)-5-ethyl-6-methylheptan-2-yl)-10,13-dimethyl-2,3,4,7,8,9,10,11,12,13,14,15,16,17-tetradecahydro-1H-cyclopenta[a]phenanthren-3-yl 5-((3-amino-3-methylbutyl)(4-((3-amino-3-methylbutyl)amino)butyl)amino)-5-oxopentanoate trihydrochloride]
Diameter (nm) [1, 5]: 76.3 nm
PDI [1, 5]: 0.13
Diameter (nm) [1, 6]: 79 nm
PDI [1, 6]: 0.20
% Encapsulation (Ribogreen) [2, 5]: 98.3%
% Encapsulation (Ribogreen) [2, 6]: 99.6%
Average Relative Light Units ± Standard Deviation (HeLa cells [3]): 15239.8 ± 6248.1 Relative Light Units
Average fold-change in CFTR signal intensity per cell compared to buffer control ± standard deviation (HeLa cells [4]): 14.0 ± 0.8 fold-change
